Test results: US20200308170A1, “KRAS G12C INHIBITORS” (Mirati Therapeutics, Inc., priority 2017, published 2020)

Target: T1, KRas G12C (Homo sapiens, UniProt P01116, C118S/C51S/C80L/G12C)
T1 construct: GDP-loaded K-Ras (1-169) G12C, C51S, C80L, C118S
Assay: KRas G12C Modification Assay (LCMS detection of covalent adduct)
Type: binding
Conditions: 5 μM concentration for 3 hours; LC/MS of intact protein; higher POC = higher degree of modification
Description: A 10 μL aliquot of each protein solution was then transferred to a 384 well microtiter plate. Initial compound stocks were generated at fifty times their desired final assay concentration in DMSO.
Exemplary compounds of Formula (II) were diluted 25-fold into K-Ras Assay Buffer to a final of two times their final concentration. A 10 μL aliquot of each diluted compound solution was then added to each of the protein solutions in the microtiter plate to initiate reaction. […] At each time point, the reactions were quenched with 20 μL of a 25 mM acetic acid solution. […] Once all reactions were quenched, the plates were heat sealed and the samples were injected into a LC/MS system for data acquisition.
Samples were injected in their liquid phase onto a C-3 reverse phase column to remove assay buffer and prepare the samples for mass spectrometer. The proteins were eluted from the column using an acetonitrile gradient and fed directly into the mass analyzer. Initial raw data analysis took place in Agilent MassHunter software immediately post data acquisition.
Raw data analysis of the intact protein was exclusively a deconvolution of the multiple charge states of each protein in solution using a maximum entropy deconvolution provided in Mass Hunter. To minimize complexity, only the data over limited mass ranges were considered for analysis, with a minimum of one Dalton mass step intervals. The heights of all masses identified during raw data analysis were exported to be further analyzed in Spotfire® data analysis software.
Final data analysis was a multistep process in the Spotfire® data analysis software package. Briefly, each protein mass was calculated as a percent of the total signal of that sample, that percentage was then normalized to the percentage of signal of the protein in the absence of reactive compounds. Those normalized signals were reported as normalized percent of control (POC). […] Key: “A”≤25% POC; “B”>25% POC−≤50% POC; “C”>50% POC and ND=not determined.

SMILES | POC (normalized percent of control; degree of covalent modification of KRas G12C)
CN1CCC[C@H]1COc1nc2c(c(N3CCN(C(=O)/C=C/C(F)(F)F)[C@@H](CC#N)C3)n1)CCN(c1cccc3cccc(Cl)c13)C2 [Example 19, 2-((S)-4-(7-(8-chloronaphthalen-1-yl)-2-(((S)-1-methylpyrrolidin-2-yl)methoxy)-5,6,7,8-tetrahydropyrido[3,4-d]pyrimidin-4-yl)-1-((E)-4,4,4-trifluorobut-2-enoyl)piperazin-2-yl)acetonitrile] | C (“C”>50% POC)
Cc1cccc2cccc(N3CCc4c(nc(OC[C@@H]5CCCN5C)nc4N4CCN(C(=O)/C=C/C(F)(F)F)[C@@H](CC#N)C4)C3)c12 [Example 20, 2-((S)-4-(7-(8-methylnaphthalen-1-yl)-2-(((S)-1-methylpyrrolidin-2-yl)methoxy)-5,6,7,8-tetrahydropyrido[3,4-d]pyrimidin-4-yl)-1-((E)-4,4,4-trifluorobut-2-enoyl)piperazin-2-yl)acetonitrile] | C (“C”>50% POC)
C=C(C(=O)N1CCN(c2nc(OC[C@@H]3CCCN3C)nc3c2CCN(c2cccc4cccc(C)c24)C3)C[C@@H]1CC#N)C(F)(F)F [Example 21, 2-((S)-4-(7-(8-methylnaphthalen-1-yl)-2-(((S)-1-methylpyrrolidin-2-yl)methoxy)-5,6,7,8-tetrahydropyrido[3,4-d]pyrimidin-4-yl)-1-(2-(trifluoromethyl)acryloyl)piperazin-2-yl)acetonitrile] | A (“A”≤25% POC)
Cc1cccc2cccc(N3CCc4c(nc(OC[C@@H]5CCCN5C)nc4N4CCN(C(=O)/C=C/c5ccccn5)[C@@H](CC#N)C4)C3)c12 [Example 22, 2-((S)-4-(7-(8-methylnaphthalen-1-yl)-2-(((S)-1-methylpyrrolidin-2-yl)methoxy)-5,6,7,8-tetrahydropyrido[3,4-d]pyrimidin-4-yl)-1-((E)-3-(pyridin-2-yl)acryloyl)piperazin-2-yl)acetonitrile] | C (“C”>50% POC)
Cc1cccc2cccc(N3CCc4c(nc(OC[C@@H]5CCCN5C)nc4N4CCN(C(=O)/C=C/c5cnn(C)c5)[C@@H](CC#N)C4)C3)c12 [Example 23, 2-((S)-1-((E)-3-(1-methyl-1H-pyrazol-4-yl)acryloyl)-4-(7-(8-methylnaphthalen-1-yl)-2-(((S)-1-methylpyrrolidin-2-yl)methoxy)-5,6,7,8-tetrahydropyrido[3,4-d]pyrimidin-4-yl)piperazin-2-yl)acetonitrile] | C (“C”>50% POC)
Cc1cccc2cccc(N3CCc4c(nc(OC[C@@H]5CCCN5C)nc4N4CCN(C(=O)/C=C/C(F)F)[C@@H](CC#N)C4)C3)c12 [Example 24, 2-((S)-1-((E)-4,4-difluorobut-2-enoyl)-4-(7-(8-methylnaphthalen-1-yl)-2-(((S)-1-methylpyrrolidin-2-yl)methoxy)-5,6,7,8-tetrahydropyrido[3,4-d]pyrimidin-4-yl)piperazin-2-yl)acetonitrile] | C (“C”>50% POC)
Cc1cccc2cccc(N3CCc4c(nc(OC[C@@H]5CCCN5C)nc4N4CCN(C(=O)C5=CC(=O)CC5)[C@@H](CC#N)C4)C3)c12 [Example 26, 2-((S)-4-(7-(8-methylnaphthalen-1-yl)-2-(((S)-1-methylpyrrolidin-2-yl)methoxy)-5,6,7,8-tetrahydropyrido[3,4-d]pyrimidin-4-yl)-1-(3-oxocyclopent-1-ene-1-carbonyl)piperazin-2-yl)acetonitrile] | C (“C”>50% POC)
Cc1cccc2cccc(N3CCc4c(nc(OC[C@@H]5CCCN5C)nc4N4CCN(C(=O)/C=C/CCl)[C@@H](CC#N)C4)C3)c12 [Example 27, 2-((S)-1-((E)-4-chlorobut-2-enoyl)-4-(7-(8-methylnaphthalen-1-yl)-2-(((S)-1-methylpyrrolidin-2-yl)methoxy)-5,6,7,8-tetrahydropyrido[3,4-d]pyrimidin-4-yl)piperazin-2-yl)acetonitrile] | C (“C”>50% POC)
Cc1cccc2cccc(N3CCc4c(nc(OC[C@@H]5CCCN5C)nc4N4CCN(C(=O)/C=C/C(=O)N(C)C)[C@@H](CC#N)C4)C3)c12 [Example 28, (E)-4-((S)-2-(cyanomethyl)-4-(7-(8-methylnaphthalen-1-yl)-2-(((S)-1-methylpyrrolidin-2-yl)methoxy)-5,6,7,8-tetrahydropyrido[3,4-d]pyrimidin-4-yl)piperazin-1-yl)-N,N-dimethyl-4-oxobut-2-enamide] | C (“C”>50% POC)
Cc1cccc2cccc(N3CCc4c(nc(OC[C@@H]5CCCN5C)nc4N4CCN(C(=O)/C=C/C(N)=O)[C@@H](CC#N)C4)C3)c12 [Example 29, (E)-4-((S)-2-(cyanomethyl)-4-(7-(8-methylnaphthalen-1-yl)-2-(((S)-1-methylpyrrolidin-2-yl)methoxy)-5,6,7,8-tetrahydropyrido[3,4-d]pyrimidin-4-yl)piperazin-1-yl)-4-oxobut-2-enamide] | C (“C”>50% POC)
Cc1cccc2cccc(N3CCc4c(nc(OC[C@@H]5CCCN5C)nc4N4CCN(C(=O)/C=C/C#N)[C@@H](CC#N)C4)C3)c12 [Example 30, (E)-4-((S)-2-(cyanomethyl)-4-(7-(8-methylnaphthalen-1-yl)-2-(((S)-1-methylpyrrolidin-2-yl)methoxy)-5,6,7,8-tetrahydropyrido[3,4-d]pyrimidin-4-yl)piperazin-1-yl)-4-oxobut-2-enenitrile] | C (“C”>50% POC)
Cc1cccc2cccc(N3CCc4c(nc(OC[C@@H]5CCCN5C)nc4N4CCN(C(=O)/C=C\C#N)[C@@H](CC#N)C4)C3)c12 [Example 31, (Z)-4-((S)-2-(cyanomethyl)-4-(7-(8-methylnaphthalen-1-yl)-2-(((S)-1-methylpyrrolidin-2-yl)methoxy)-5,6,7,8-tetrahydropyrido[3,4-d]pyrimidin-4-yl)piperazin-1-yl)-4-oxobut-2-enenitrile] | C (“C”>50% POC)
CN(C)C/C=C(/F)C(=O)N1CCN(c2nc(OC[C@@H]3CCCN3C)nc3c2CCN(c2cccc4cccc(Cl)c24)C3)C[C@@H]1CC#N [Example 32, 2-[(2S)-4-[7-(8-chloro-1-naphthyl)-2-[[(2S)-1-methylpyrrolidin-2-yl]methoxy]-6,8-dihydro-5H-pyrido[3,4-d]pyrimidin-4-yl]-1-[(E)-4-(dimethylamino)-2-fluoro-but-2-enoyl]piperazin-2-yl]acetonitrile] | C (“C”>50% POC)
C=C(C(=O)N1CCN(c2nc(OC[C@@H]3CCCN3C)nc3c2CCN(c2cccc4cccc(Cl)c24)C3)C[C@@H]1CC#N)C(F)(F)F [Example 33, 2-[(2S)-4-[7-(8-chloro-1-naphthyl)-2-[[(2S)-1-methylpyrrolidin-2-yl]methoxy]-6,8-dihydro-5H-pyrido[3,4-d]pyrimidin-4-yl]-1-[2-(trifluoromethyl)prop-2-enoyl]piperazin-2-yl]acetonitrile] | C (“C”>50% POC)
Cc1cccc(N2CCc3c(nc(OC[C@@H]4CCCN4C)nc3N3CCN(C(=O)/C=C\Cl)[C@@H](CC#N)C3)C2)c1C [Example 34, 2-((S)-1-((Z)-3-chloroacryloyl)-4-(7-(2,3-dimethylphenyl)-2-(((S)-1-methylpyrrolidin-2-yl)methoxy)-5,6,7,8-tetrahydropyrido[3,4-d]pyrimidin-4-yl)piperazin-2-yl)acetonitrile] | C (“C”>50% POC)
Cc1cccc2cccc(N3CCc4c(nc(OC[C@@H]5CCCN5C)nc4N4CCN(C(=O)/C=C/CF)[C@@H](CC#N)C4)C3)c12 [Example 35, 2-((S)-1-((E)-4-fluorobut-2-enoyl)-4-(7-(8-methylnaphthalen-1-yl)-2-(((S)-1-methylpyrrolidin-2-yl)methoxy)-5,6,7,8-tetrahydropyrido[3,4-d]pyrimidin-4-yl)piperazin-2-yl)acetonitrile] | C (“C”>50% POC)
C=C(F)C(=O)N1CCN(c2nc(OC[C@@H]3CCCN3C)nc3c2CCN(c2cccc4cccc(C)c24)C3)C[C@@H]1CC#N [Example 36, 2-((S)-1-(2-fluoroacryloyl)-4-(7-(8-methylnaphthalen-1-yl)-2-(((S)-1-methylpyrrolidin-2-yl)methoxy)-5,6,7,8-tetrahydropyrido[3,4-d]pyrimidin-4-yl)piperazin-2-yl)acetonitrile] | C (“C”>50% POC)
